One data set deals with anthracnose (C. cereale). The data set can be described thus: Field efficacy test, control of anthracnose on putting green turf. The class given is in vivo, 'Dominant Plus' creeping bentgrass. Conditions: Trinity 1.69SC 0.32 ml/m^2, 14 d interval; for Turf quality: 1-to-9 scale (9 = best), anthracnose trial.
Data set [1] concerns rabbit. The conditions noted are these: in vivo; cited from earlier work.
In a further data set the test system is Oncorhynchus mykiss. Conditions: cited from earlier work.
The test system of the next data set is Colletotrichum cereale. The data set can be described thus: In vitro sensitivity assay (radial growth on fungicide-amended PDA). In kind it is cell-based. Here is the method:
(§1) Three isolates of S. homoeocarpa and two isolates of C. cereale were selected to evaluate ningnanmycin (Ningnanmycin 10WP, Deqiang Biological Co., LTD. Harbin, Helongjiang, China) in vitro activities using 5 three-fold dilutions from 0.81 to 0.01 μg a.i./ml. […] Based on preliminary experiments, five dilutions of triticonazole were used, ranging from 0.81 to 0.01 μg a.i/ml for isolates of S. homoeocarpa and from 6.25 to 0.01 μg a.i./ml for isolates of C. cereale. All isolates were prepared for long-term storage on pieces of dried filter paper maintained at −80° C. Filter paper sections containing each isolate were removed from −80° C. storage and placed on PDA amended with 0.05 μg/ml each of chloramphenicol, streptomycin, and tetracycline (PDA+++). After 3 days, mycelium-containing plugs (1×1 cm) were transferred to water agar for another 2 days. Then, water agar plugs (0.45 cm diameter) were cut from the periphery of the colony using a cork borer and placed on the center of Petri dishes containing non-amended PDA and PDA amended with the serial concentrations of each fungicide with three replicates per isolate. Radial growth was measured after three days (72 h) incubation at room temperature for isolates of S. homoeocarpa and seven days for isolates of C. cereale. Relative Growth (RG) was calculated by dividing colony diameter on amended PDA by that on the non-amended PDA. EC50 values were then calculated using the method described by Secor et al. (Fungicide resistance assays for fungal plant pathogens. Methods Mol Biol. 835:385-392, 2012). The in vitro sensitivity assay repeated twice and EC50 value of each isolates was determined as the mean of EC50 values from two assays.

A further data set has as its system Sclerotinia homoeocarpa. Described as above. The conditions noted are these: Clarireedia homoeocarpa. In kind it is cell-based. Here is the method:
as §1

The test system of another data set is Lepomis macrochirus. The conditions noted are these: cited from earlier work.
A further data set has as its system guinea pig. The conditions noted are these: in vivo; cited from earlier work.
The test system of data set [2] is rat. The conditions noted are these: Trinity 1.69SC MSDS; cited from earlier work.
Data set [3] has as its system rat. Conditions: cited from earlier work.
The next data set has as its system green algae. Conditions: in vivo; cited from earlier work.
Another data set relates to honey bee. Conditions: cited from earlier work.
The test system of data set [4] is rabbit. Conditions: in vivo; cited from earlier work. The source holds these as a separate data set.

≈ marks a conversion by molar mass, not a printed value. Where two headings read alike, the source gives them in different places.

With `CC1(C)CCC(=Cc2ccc(Cl)cc2)C1(O)Cn1cncn1` (stereo not shown) [triticonazole, reference compound], the Turf quality is 5 in the data set with anthracnose (C. cereale) (Aug. 8, 2010) and 5 in the data set with anthracnose (C. cereale) (Aug. 15, 2010). Besides, the “Anthracnose severity (%)” value in the data set with anthracnose (C. cereale) (Aug. 1, 2011) was found to be 17%; in the data set with anthracnose (C. cereale) (Aug. 8, 2011), 3%; in the data set with anthracnose (C. cereale) (Aug. 15, 2011), 12%; with anthracnose (C. cereale) (Jul. 25, 2011), 16%. The Irritation to eye result in the data set with rabbit [1] is given as “slightly irritating”. For the same compound, the “Fish LC50 (96 h)” value with Oncorhynchus mykiss is greater than 3.6 µg/mL; in the data set with Lepomis macrochirus it was >8.9 mg/L (Lepomis. Further, the EC50 in the data set with Colletotrichum cereale (168 h, isolate ABR1, radial growth after seven days, mean of two assays, read-out: EC50) was 1.24 µg/mL (≈ 3.9 µM); in the data set with Colletotrichum cereale (168 h, isolate ABR12, radial growth after seven days, mean of two assays, read-out: EC50) it was 0.72 µg/mL (≈ 2.27 µM); in the data set on Colletotrichum cereale (mean of two isolates, read-out: mean EC50), 0.98 µg/mL (≈ 3.08 µM); in the data set with Sclerotinia homoeocarpa (72 h, isolate 761SHME, radial growth after 72 h, mean of two assays, Ningnanmycin 10WP / technical triticonazole, μg a.i./ml, read-out: EC50) it was 0.05 µg/mL (≈ 0.157 µM); with Sclerotinia homoeocarpa (72 h, isolate LWC 27, radial growth after 72 h, mean of two assays, read-out: EC50), 0.06 µg/mL (≈ 0.189 µM); in the data set with Sclerotinia homoeocarpa (72 h, isolate PST4, radial growth after 72 h, mean of two assays, read-out: EC50) it was 0.03 µg/mL (≈ 0.0944 µM). The EC50 with Sclerotinia homoeocarpa (mean of three isolates, read-out: mean EC50) was 0.05 µg/mL (≈ 0.157 µM). In addition, in the data set on guinea pig, the Sensitization result is listed as “no”. Moreover, in the data set with rat [2], the “Acute toxicity Oral LD50” value is on record as >5,000 mg/kg. The “Acute toxicity Dermal LD50” value in the data set on rat [3] is on record as >2,000/mg/kg. Further, the “Aquatic plants EC50” value in the data set with green algae is recorded as >1 mg/L (96 h). Moreover, the “Non-mammals, honey bee” value in the data set with honey bee is given as 1.87 μg/bee. Besides, in the data set with rabbit [4], the Irritation to skin result is given as “moderately irritating”.

Source of the values: patent US20130324493A1, “COMPOSITIONS COMPRISING NINGNANMYCIN AND USES THEREFOR” (North Carolina State University, priority 2012, published 2013).
